As a reminder, the melting point is the temperature of the solid-liquid transition. One may read the pIC50 as −log10 of the IC50, conventionally taken in molar units. Higher therefore signals a low IC50.

In patent publication US8759343B2 (priority 2007, dated 2014) one finds melting point and IC50 data, which are given here for twelve compounds.

Structures are written as SMILES. pIC50: −log10 of the molar value. Where a name gives a salt, the structure may show the parent alone.

In data set [1] the target is nicotinic receptors comprising the α7 subunit (Rattus norvegicus, UniProt Q05941). Briefly: biochemical. In kind it is binding.
Sequence of nicotinic receptors comprising the α7 subunit (Q05941 23-502): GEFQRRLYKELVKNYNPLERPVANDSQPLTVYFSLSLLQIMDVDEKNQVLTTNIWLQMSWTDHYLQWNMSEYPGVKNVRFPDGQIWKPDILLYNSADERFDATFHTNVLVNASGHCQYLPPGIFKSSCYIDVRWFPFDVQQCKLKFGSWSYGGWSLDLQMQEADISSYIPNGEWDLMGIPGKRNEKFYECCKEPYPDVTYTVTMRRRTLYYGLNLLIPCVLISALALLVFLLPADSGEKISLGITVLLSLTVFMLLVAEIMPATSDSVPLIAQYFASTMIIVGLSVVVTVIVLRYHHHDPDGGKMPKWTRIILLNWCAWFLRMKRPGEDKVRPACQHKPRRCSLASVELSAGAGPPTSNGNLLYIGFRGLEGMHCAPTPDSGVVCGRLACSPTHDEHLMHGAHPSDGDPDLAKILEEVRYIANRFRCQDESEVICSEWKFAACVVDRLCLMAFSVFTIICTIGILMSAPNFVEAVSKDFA

`FC(F)(F)Oc1cccc(-c2ccc(C34CCN(CC3)C4)cn2)c1` (as salt: HCl) yielded a melting point of 152 to 154 °C. Same read-out and setting: the result for `COc1ccc(-c2ccc(C34CCN(CC3)C4)cn2)cc1OC` (as salt: HCl) reads 247 to 249 °C; that for `FC(F)(F)c1cccc(-c2ccc(C34CCN(CC3)C4)cn2)c1` (as salt: HCl), 191 to 192 °C; that for `c1cc(-c2ccc(C34CCN(CC3)C4)cn2)c[nH]1` (as salt: HCl), 324 to 326 °C. As to `c1ccc2c(c1)nnn2-c1ccc(C23CCCN(CCC2)C3)cn1` (as salt: HCl), the melting point lay in the range of 258 to 260 °C.

`c1ccc2c(c1)sc1ccc(-c3ccc(C45CCCN(CCC4)C5)cn3)cc12` (as salt: HCl) gave a melting point of 242 to 244 °C.

Compound `COc1cccc(-c2ccc(C34CCCN(CCC3)C4)cn2)c1` (as salt: HCl) showed a melting point of 267 to 269 °C.

`c1cnc2ccc(-c3ccc(C45CCN(CC4)C5)cn3)cc2c1` (as salt: HCl) [Compound 12, 6-[5-(1-azabicyclo[2.2.1]hept-4-yl)pyridin-2-yl]quinoline] showed a melting point of 327 to 328 °C.

As to `c1cnc2ccc(-c3ccc(C45CCN(CC4)C5)cn3)cc2c1` [Compound 12, 6-[5-(1-azabicyclo[2.2.1]hept-4-yl)pyridin-2-yl]quinoline], the pIC50 in data set [1] is 7.43. For `c1cc2c(cc1-c1ccc(C34CCN(CC3)C4)cn1)OCO2` [Compound 16, 4-[6-(1,3-benzodioxol-5-yl)pyridin-3-yl]-1-azabicyclo[2.2.1]heptane], the melting point fell in the range of 256 to 258 °C. In addition, the pIC50 in data set [1] is 8.04. The matching figures for `Fc1cccc(-c2ccc(C34CCN(CC3)C4)cn2)c1` [Compound 19, 4-[6-(3-fluorophenyl)pyridin-3-yl]-1-azabicyclo[2.2.1]heptane]: 88 to 90 °C and 7.86.

`c1cc(-c2ccc(C34CCN(CC3)C4)cn2)cc(-n2cccn2)c1` [Compound 113, 4-[6-(3-(pyrazol-1-yl)phenyl)pyridin-3-yl]-1-azabicyclo[2.2.1]heptane] had a melting point of 114 to 116 °C. The compound also had a pIC50 in data set [1] of 8.33.
